Reference: patent US20130158090A1, “METRONIDAZOLE ESTERS FOR TREATING ROSACEA” (GALDERMA RESEARCH & DEVELOPMENT, priority 2010, published 2013)
Each block holds one molecule with its values, some of them ahead of it.

Assays:
[1] = system: human neonatal keratinocytes; assay: Stability on keratinocyte cultures; format: in vitro ADME; details: human neonatal keratinocyte cultures, comparative esters
Procedure: (§1) The stability on keratinocyte cultures is evaluated using human neonatal keratinocytes (Cell'N Tech) cultured in a 75 cm^2 flask and detached at 90-100% of confluence with vegetable trypsin (trypLE GIBCO). The compound of formula (I) was tested at 2 μM in the medium CNT-057 (Cell'N Tech) supplemented with 0.1% pluronic acid in 24-well plates. The final DMSO concentration is 0.1%. Degradation kinetics are performed with a Tecan EVO robot over 24 hours. The samples taken are then assayed by LC/MS/MS (Micromass) in comparison with a calibration range of the test product, prepared under the same conditions as the samples (⅓ culture medium and ⅔ methanol). The chromatographic conditions are optimized for each product. An assay of the appearance of metronidazole is also performed using these same samples.

[2] = system: oedema induced by arachidonic acid (AA) on mouse ear; assay: Acute inflammation on mouse ear: arachidonic acid-induced oedema; format: in vivo; details: 1 hour after application
Procedure: The anti-inflammatory activities of the compound of formula (I) in racemic form, of the S enantiomer of the compound of formula (I), of metronidazole and of ibuprofen were measured in an in vivo test performed on a mouse model. This model consists in inducing inflammation of the mouse ear with a single application of arachidonic acid (AA). Female Balb/c ByJlco mice are used. The oedema is induced by applying to the mouse's ear 20 μL of AA dissolved to 4% in a 1/1 THF/methanol mixture. The anti-inflammatory activities of the S enantiomer of the compound of formula (I), of the compound of formula (I) in racemic form, of metronidazole and of ibuprofen were evaluated after topical application onto the inner face of the mouse's ear of 20 μL of a solution of the compound in a 1/1 THF/methanol mixture containing 4% AA.
Solutions containing 0.01%; 0.03%; 0.1%; 0.3%; 1% and 2% of the test compound are thus prepared. The percentages correspond to the weight of the test compound per volume of solution. The oedema is evaluated, 1 hour after application, by measuring the thickness of the ear using an Oditest® micrometer. The oedema induced by AA alone is evaluated, 1 hour after application, by measuring the thickness of the ear using an Oditest® micrometer. It is evaluated relative to a group comprising only the vehicle (1/1 THF/methanol). […]

[3] = system: oedema induced by TPA (phorbol 12-myristate-13-acetate) on mouse ear; assay: Acute inflammation on mouse ear: oedema induced by TPA; format: in vivo; details: 6 hours after application
Procedure: The anti-inflammatory activities of the compound of formula (I) in racemic form, of the S enantiomer of the compound of formula (I), of metronidazole and of ibuprofen were measured in an in vivo test performed on a mouse model.
The model used is the model of mouse ear inflammation induced by a single application of TPA (phorbol 12-myristate-13-acetate). Female Balb/c ByJlco mice are used.
The oedema is induced by applying to the ear 20 μl of 0.01% TPA dissolved in ethanol.
The racemic compound of formula (I) is dissolved, at the desired concentration, in the 0.01% TPA solution and thus applied to a group of mice at the same time as the TPA.
The S enantiomer of the compound of formula (I) is dissolved, at the desired concentration, in the 0.01% TPA solution and thus applied to another group of mice at the same time as the TPA.
Similarly, ibuprofen (racemic) is dissolved, at the desired concentration, in the 0.01% TPA solution and is applied to another group of mice at the same time as the TPA. Finally, metronidazole is dissolved, at the desired concentration, in the 0.01% TPA solution and is applied to another group of mice at the same time as the TPA.
The oedema is evaluated, 6 hours after application of the test product, by measuring the thickness of the ear using an Oditest® micrometer.
The TPA-induced oedema is evaluated relative to the ethanol vehicle group. […]

[4] = Stability on keratinocyte cultures; format: in vitro ADME, human; details: human neonatal keratinocyte culture, 2 μM, degradation kinetics over 24 hours, LC/MS/MS; read-out: half-life time (t1/2) (converted)
Procedure: as §1

SMILES: Cc1ncc([N+](=O)[O-])n1CCO [metronidazole]
anti-inflammatory activity ([2]; AA-induced mouse ear oedema, topical): no anti-inflammatory activity
anti-inflammatory activity ([3]; topical): no anti-inflammatory activity

SMILES: COc1ccc2c(c1)c(CC(=O)OCCn1c([N+](=O)[O-])cnc1C)c(C)n2C(=O)c1ccc(Cl)cc1 [metronidazole ester with indomethacin]
hydrolysis / stability on keratinocyte cultures [1]: do not become hydrolysed

SMILES: Cc1ncc([N+](=O)[O-])n1CCOC(=O)c1cccnc1Nc1cccc(C(F)(F)F)c1 [metronidazole ester with niflumic acid]
hydrolysis / stability on keratinocyte cultures [1]: do not become hydrolysed

The next lines start with results.

hydrolysis / stability on keratinocyte cultures [1]: do not become hydrolysed
SMILES: Cc1ncc([N+](=O)[O-])n1CCOC(=O)C1CCn2c(C(=O)c3ccccc3)ccc21 (stereo not shown) [metronidazole ester with ketorolac]

half-life at 2 μM [4]: 20 h
SMILES: Cc1ncc([N+](=O)[O-])n1CCOC(=O)[C@@H](C)c1ccc(CC(C)C)cc1 [S enantiomer of the compound of formula (I), 2-(2-methyl-5-nitroimidazol-1-yl)ethyl (S)-2-(4-isobutylphenyl)propionate]
inhibition of the oedema induced by AA alone ([2]; dose of 1% (w/v) topical on mouse ear): 49%

half-life at 2 μM [4]: 3 h
IC50 (concentration at which 50% inhibition of the oedema induced by TPA alone is observed) ([3]; topical with 0.01% TPA): 0.28%
SMILES: Cc1ncc([N+](=O)[O-])n1CCOC(=O)C(C)c1ccc(CC(C)C)cc1 (racemic) [racemic compound of formula (I), 2-(2-methyl-5-nitroimidazol-1-yl)ethyl 2-(4-isobutylphenyl)propionate]

hydrolysis / stability on keratinocyte cultures [1]: do not become hydrolysed
SMILES: Cc1ncc([N+](=O)[O-])n1CCOC(=O)c1cc(-c2ccc(F)cc2F)ccc1O [metronidazole ester with diflunisal]
